Measurements from US8865756B2, “Inhibitors of HCV NS5A” (Presidio Pharmaceuticals, Inc., priority 2008, dated 2014).

These molecules were tested on HCV 1b_Huh-Luc/Neo-ET cell line persistently expressing a bicistronic genotype 1b replicon in Huh 7 cells (assay: HCV replicon assay (luciferase readout)). Conditions: Hepatitis C virus, Huh-7, 72 h, read-out: Inhibition of HCV genotype 1b.
Type: cell-based
In short: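 Huh 7 cells carrying a genotype 1b luciferase/neo replicon treated in triplicate for 72 h, then luciferase activity measured. Signal expressed as % of control; EC50 from four-parameter logistic fit, determined several times.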

`COC(=O)N[C@H](C(=O)N1CCC[C@H]1c1ncc(C#Cc2ccc(-c3ccc4nc([C@@H]5CCCN5C(=O)[C@H](NC(=O)OC)c5ccccc5)[nH]c4c3)nc2)[nH]1)C(C)C` [Compound 1087] and `COC(=O)N[C@H](C(=O)N1CCC[C@H]1c1ncc(-c2ccc(C#Cc3ccc4nc([C@@H]5CCCN5C(=O)[C@H](NC(=O)OC)c5ccccc5)[nH]c4c3)cc2)[nH]1)C(C)C` [Compound 1023] cannot be ordered by EC50: < 1 nM for the first, < 1 nM for the second.

`CC(C)[C@@H](NC(=O)OC(C)(C)C)C(=O)N1CCC[C@H]1C(=O)NCc1ccc(C#Cc2cnc([C@@H]3CCCN3C(=O)[C@H](NC(=O)OC(C)(C)C)C(C)C)[nH]2)cc1` [Compound 120] and `CC(C)[C@@H](NC(=O)C1CC1)C(=O)N1CCC[C@H]1C(=O)NCCc1ccc(C#Cc2cnc([C@@H]3CCCN3C(=O)[C@H](NC(=O)C3CC3)C(C)C)[nH]2)cc1` [Compound 127] fall in the same range of EC50: 10 to 999 nM for the first, 10 to 999 nM for the second.

Compared with `COC(=O)N[C@H](C(=O)N[C@@H](C)c1ncc(-c2ccc(C#Cc3ccc(-c4cnc([C@@H]5CCCN5C(=O)[C@@H](C(C)C)N(C)C)[nH]4)cc3)cc2)[nH]1)C(C)C` [Compound 964], `COC(=O)N[C@H](C(=O)N[C@@H](C)c1ncc(-c2ccc(C#Cc3ccc(-c4cnc([C@@H]5CCCN5C(=O)[C@@H](NC(=O)OC)C(C)C)[nH]4)cc3)cc2)[nH]1)C(C)C` [Compound 275] is lower in EC50: 1 to 9.9 nM for the first, < 1 nM for the second. The second is the more potent here.

Compared with `COC(=O)N[C@@H](CC(C)C)C(=O)N1CCC[C@H]1c1ncc(-c2ccc(C#Cc3ccc4nc([C@@H]5CCCN5C(=O)[C@H](CC(C)C)NC(=O)OC)[nH]c4c3)cc2)[nH]1` [Compound 1067], `COC(=O)N[C@H](CC(=O)N1CCC[C@H]1c1ncc(-c2ccc(C#Cc3ccc4nc([C@@H]5CCCN5C(=O)C[C@@H](NC(=O)OC)C(C)C)[nH]c4c3)cc2)[nH]1)C(C)C` [Compound 1065] is higher in EC50: < 1 nM for the first, 10 to 999 nM for the second.

First: COC(=O)NC(C(=O)N1CCC[C@H]1c1ncc(-c2ccc(C#Cc3ccc(-c4cnc([C@@H]5CCCN5C(=O)[C@H](NC(=O)OC)[C@H](C)O)[nH]4)cc3)cc2)[nH]1)[C@H](C)O (stereo partly drawn) [Compound 978]
Second: COC(=O)N[C@H](C(=O)N1CCC[C@H]1c1ncc(-c2ccc(C#Cc3ccc(-c4cnc([C@@H]5CCCN5C(=O)[C@@H](NC(=O)OC)C(C)(C)O)[nH]4)cc3)cc2)[nH]1)C(C)(C)O [Compound 993]
The EC50 of the first is higher: 10 to 999 nM for the first, < 1 nM for the second. The second is the more potent here.

`CC(=O)N[C@@H](C(=O)N1CCC[C@H]1c1ncc(-c2ccc(C#Cc3ccc(-c4cnc([C@@H]5CCCN5C(=O)[C@H](NC(C)=O)c5ccccc5)[nH]4)cc3)cc2)[nH]1)c1ccccc1` [Compound 158] and `COC(=O)N[C@@H](C(=O)N1CCC[C@H]1c1ncc(-c2ccc(C#Cc3ccc(-c4cnc([C@@H]5CCCN5C(=O)[C@H](NS(C)(=O)=O)c5ccccc5)[nH]4)cc3)cc2)[nH]1)c1ccccc1` [Compound 225] cannot be ordered by EC50: < 1 nM for the first, < 1 nM for the second.

`COC(=O)N[C@@H](C(=O)N1CCC[C@H]1c1ncc(-c2ccc(C#Cc3ccc4nc([C@@H]5CCCN5C(=O)[C@H](NC(=O)OC)c5ccccc5)[nH]c4c3)cc2)[nH]1)c1ccccc1` [Compound 800] and `COC(=O)N[C@H](Cc1ccccc1)C(=O)N1CCC[C@H]1c1ncc(-c2ccc(C#Cc3ccc(-c4cnc([C@@H]5CCCN5C(=O)[C@H](NC(=O)OC)c5ccccc5)[nH]4)cc3)cc2)[nH]1` [Compound 180] cannot be ordered by EC50: < 1 nM for the first, < 1 nM for the second.

`COC(=O)N[C@H](C(=O)N1CCC[C@H]1c1ncc(-c2ccc(C#Cc3ccc(-c4cnc([C@@H]5CCCN5C(=O)[C@@H](c5ccccc5)N5CCN(CCO)CC5)[nH]4)cc3)cc2)[nH]1)C(C)C` [Compound 958] and `COC(=O)N[C@H](C(=O)N1CCC[C@H]1c1ncc(-c2ccc(C#Cc3ccc(-c4cnc([C@@H]5CCCN5C(=O)[C@@H](c5ccccc5)N5CCN(C)CC5)[nH]4)cc3)cc2)[nH]1)C(C)C` [Compound 957] cannot be ordered by EC50: < 1 nM for the first, < 1 nM for the second.

`COC(=O)N[C@@H](C(=O)N[C@H](c1ncc(-c2ccc(C#Cc3ccc(-c4cnc([C@@H]5CCCN5C(=O)[C@H](NC(=O)OC)c5ccccc5)[nH]4)cc3)cc2)[nH]1)C(C)C)c1ccccc1` [Compound 282] and `CC(C)(C)OC(=O)N[C@@H](C(=O)N1CCC[C@H]1c1ncc(-c2ccc(C#Cc3ccc(-c4cnc([C@@H]5CCCN5C(=O)[C@H](NC(=O)OC(C)(C)C)c5ccccc5)[nH]4)cc3)cc2)[nH]1)c1ccccc1` [Compound 150] cannot be ordered by EC50: < 1 nM for the first, < 1 nM for the second.

`C[C@@H](NC(=O)C1CC1)C(=O)N1CCC[C@H]1c1ncc(C#Cc2ccc(-c3cnc([C@@H]4CCCN4C(=O)[C@@H](C)NC(=O)C4CC4)[nH]3)cc2)[nH]1` [Compound 111] and `CC(C)[C@@H](NC(=O)C1CC1)C(=O)N1CCC[C@H]1c1ncc(C#Cc2ccc(-c3cnc([C@@H]4CCCN4C(=O)[C@H](NC(=O)C4CC4)C(C)C)[nH]3)cc2)[nH]1` [Compound 107] fall in the same range of EC50: 1 to 9.9 nM for the first, 1 to 9.9 nM for the second.

`COC(=O)N[C@@H](C(=O)N1CCC[C@H]1c1ncc(-c2ccc(C#Cc3ccc(C(=O)NC[C@@H]4CCCN4C(=O)[C@@H](c4ccccc4)N4CCCCC4)cc3)cc2)[nH]1)c1ccccc1` [Compound 233] and `COC(=O)N[C@@H](C(=O)N1CCC[C@H]1c1ncc(-c2ccc(C#Cc3ccc(-c4cnc([C@@H]5CCCN5C(=O)[C@H](NC(=O)N5CCC[C@H]5CO)c5ccccc5)[nH]4)cc3)cc2)[nH]1)c1ccccc1` [Compound 255] cannot be ordered by EC50: < 1 nM for the first, < 1 nM for the second.

`COCCOc1c(C#Cc2ccc3nc([C@@H]4CCCN4C(=O)[C@@H](NC(=O)OC)C(C)C)[nH]c3c2)ccc(-c2cnc([C@@H]3CCCN3C(=O)[C@H](NC(=O)OC)C(C)C)[nH]2)c1OCCOC` [Compound 1066] and `COC(=O)N[C@H](C(=O)N1CCC[C@H]1c1nc2ccc(C#Cc3ccc(-c4ccc5nc([C@@H]6CCCN6C(=O)[C@@H](NC(=O)OC)C(C)C)[nH]c5c4)nc3)cc2[nH]1)C(C)C` [Compound 1083] cannot be ordered by EC50: < 1 nM for the first, < 1 nM for the second.

`CO[C@@H](C(=O)N1CCC[C@H]1c1ncc(-c2ccc(C#Cc3ccc(-c4cnc([C@@H]5CCCN5C(=O)[C@H](OC)c5ccccc5)[nH]4)cc3)cc2)[nH]1)c1ccccc1` [Compound 172] and `COC[C@H]1CCCN1C(=O)N[C@@H](C(=O)N1CCC[C@H]1c1ncc(-c2ccc(C#Cc3ccc(-c4cnc([C@@H]5CCCN5C(=O)[C@H](NC(=O)OC)c5ccccc5)[nH]4)cc3)cc2)[nH]1)c1ccccc1` [Compound 259] cannot be ordered by EC50: < 1 nM for the first, < 1 nM for the second.

`COC(=O)N[C@@H](C(=O)N1CCC[C@H]1c1ncc(-c2ccc(C#Cc3ccc(-c4cnc([C@@H]5CCCN5C(=O)c5nccn5C)[nH]4)cc3)cc2)[nH]1)c1ccccc1` [Compound 176] and `CCN(CC)[C@@H](C(=O)N1CCC[C@H]1c1ncc(-c2ccc(C#Cc3ccc(-c4cnc([C@@H]5CCCN5C(=O)[C@@H](NC(=O)OC)C(C)C)[nH]4)cc3)cc2)[nH]1)c1ccccc1` [Compound 985] cannot be ordered by EC50: < 1 nM for the first, < 1 nM for the second.

First: COC(=O)N[C@@H](CC(=O)O)C(=O)N1CCC[C@H]1c1ncc(-c2ccc(C#Cc3ccc4nc([C@@H]5CCCN5C(=O)[C@H](CC(=O)O)NC(=O)OC)[nH]c4c3)cc2)[nH]1 [Compound 1061]
Second: COC(=O)N[C@H](C(=O)N1CCC[C@H]1c1nc2ccc(C#Cc3ccc(-c4cnc([C@@H]5CCCN5C(=O)[C@H](c5ccccc5)N(C)C)[nH]4)cc3)cc2[nH]1)C(C)C [Compound 864]
The EC50 of the first is higher: 10 to 999 nM for the first, < 1 nM for the second.

`O=C(N[C@@H](C(=O)N1CCC[C@H]1C(=O)Nc1ccc(C#Cc2ccc(-c3cnc([C@@H]4CCCN4C(=O)[C@H](NC(=O)C4CC4)c4ccccc4)[nH]3)cc2)cc1)c1ccccc1)C1CC1` [Compound 166] and `CC(C)(C)OC(=O)N[C@@H](C(=O)N1CCC[C@H]1C(=O)Nc1ccc(C#Cc2ccc(-c3cnc([C@@H]4CCCN4C(=O)[C@H](NC(=O)OC(C)(C)C)c4ccccc4)[nH]3)cc2)cc1)c1ccccc1` [Compound 163] cannot be ordered by EC50: < 1 nM for the first, < 1 nM for the second.

`O=C(N[C@@H](C(=O)N1CCC[C@H]1c1ncc(-c2ccc(C#Cc3ccc(-c4cnc([C@@H]5CCCN5C(=O)[C@@H](c5ccccc5)N5CCOCC5)[nH]4)cc3)cc2)[nH]1)c1ccccc1)C1CC1` [Compound 237] and `O=C(N[C@@H](C(=O)N1CCC[C@H]1c1ncc(-c2ccc(C#Cc3ccc(-c4cnc([C@@H]5CCCN5C(=O)[C@H](NC(=O)N5CCCC5)c5ccccc5)[nH]4)cc3)cc2)[nH]1)c1ccccc1)N1CCCC1` [Compound 249] cannot be ordered by EC50: < 1 nM for the first, < 1 nM for the second.

`O=C(N[C@@H](C(=O)N1CCC[C@H]1c1ncc(C#Cc2ccc(-c3ccc(-c4cnc([C@@H]5CCCN5C(=O)[C@H](NC(=O)N5CCOCC5)c5ccccc5)[nH]4)cc3)cc2)[nH]1)c1ccccc1)N1CCOCC1` [Compound 761] and `O=C(N[C@@H](C(=O)N1CCC[C@H]1c1ncc(-c2ccc(C#Cc3ccc(-c4cnc([C@@H]5CCCN5C(=O)[C@H](NC(=O)N5CCCCC5)c5ccccc5)[nH]4)cc3)cc2)[nH]1)c1ccccc1)N1CCCCC1` [Compound 250] cannot be ordered by EC50: < 1 nM for the first, < 1 nM for the second.

`O=C(N[C@@H](C(=O)N1CCC[C@H]1c1ncc(C#Cc2ccc(C#Cc3cnc([C@@H]4CCCN4C(=O)[C@H](NC(=O)C4CC4)c4ccccc4)[nH]3)cc2)[nH]1)c1ccccc1)C1CC1` [Compound 303] and `O=C(N[C@@H](C(=O)N1CCC[C@H]1c1cc(-c2ccc(C#Cc3ccc(-c4cnc([C@@H]5CCCN5C(=O)[C@H](NC(=O)[C@@H]5CCCO5)c5ccccc5)[nH]4)cc3)cc2)n[nH]1)c1ccccc1)[C@@H]1CCCO1` [Compound 214] cannot be ordered by EC50: < 1 nM for the first, < 1 nM for the second.

First: O=S(=O)(Cc1ccccc1)N1CCC[C@H]1c1ncc(-c2ccc(C#Cc3ccc4nc([C@@H]5CCCN5S(=O)(=O)Cc5ccccc5)[nH]c4c3)cc2)[nH]1 [Compound 1042]
Second: CC(C)(C)OC(=O)N1CCCC1c1ncc(-c2ccc(C#Cc3ccc4nc([C@@H]5CCCN5C(=O)OC(C)(C)C)[nH]c4c3)cc2)[nH]1 (stereo partly drawn) [Compound 1034]
The EC50 of the first is higher: > 1000 nM for the first, 1 to 9.9 nM for the second.

`COC(=O)N[C@H](C(=O)N1CCC[C@H]1c1nc2ccc3cc(C#Cc4ccc(-c5cnc([C@@H]6CCCN6C(=O)[C@@H](NC(=O)OC)C6CCOCC6)[nH]5)cc4F)ccc3c2[nH]1)C(C)C` [Compound 1099] and `COC(=O)N[C@H](C(=O)N1CCC[C@H]1c1ncc(-c2ccc(C#Cc3ccc(-c4cnc([C@H](C)NC(=O)[C@@H](c5ccccc5)N(C)C)[nH]4)cc3)cc2)[nH]1)C(C)C` [Compound 983] cannot be ordered by EC50: < 1 nM for the first, < 1 nM for the second.
